Test results from ChEMBL document CHEMBL1201862, “PubChem BioAssay data set” (2004).
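Cultured in 96-well plates, cells were exposed to test compound for 48 hours across five concentrations. GI50 is the concentration that inhibits growth by half.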 Activity calls are given as the source filed them. Rule as the data show it: active = GI50 up to about 1.1 µM and inactive = higher.

Columns and labels:
Test in all cases: NCI tumour cell line growth inhibition, 48 h
HL-60 = tested on: HL-60
EKVX = tested on: EKVX
HOP-92 = tested on: HOP-92
K562 = tested on: K562
MDA-MB-435 = tested on: MDA-MB-435
786-0 = tested on: 786-0
IGROV-1 = tested on: IGROV-1
HCC 2998 = tested on: HCC 2998
OVCAR-5 = tested on: OVCAR-5
UO-31 = tested on: UO-31
U-251 = tested on: U-251
MCF7 = tested on: MCF7
SF-539 = tested on: SF-539
CCRF-CEM = tested on: CCRF-CEM
CAKI-1 = tested on: CAKI-1
UACC-257 = tested on: UACC-257
COLO 205 = tested on: COLO 205
HOP-62 = tested on: HOP-62
SR = tested on: SR
RXF 393 = tested on: RXF 393

Measured: GI50

NC1c2c(Br)sc(N3CCCC3)c2C(=O)C1O (configuration not stated)
inactive: HL-60 > 50 µM | EKVX > 50 µM | HOP-92 26.2 µM | K562 > 50 µM | MDA-MB-435 > 50 µM | 786-0 > 50 µM | IGROV-1 > 50 µM | HCC 2998 36.6 µM | OVCAR-5 > 50 µM | UO-31 > 50 µM | U-251 > 50 µM | MCF7 > 50 µM | SF-539 > 50 µM | CCRF-CEM > 50 µM | CAKI-1 > 50 µM | UACC-257 > 50 µM | COLO 205 > 50 µM

CCOC(=O)CCC(NC(=O)C(N)c1ccc([N+](=O)[O-])cc1)C(=O)NC(CCC(=O)OCC)C(=O)OCC (configuration not stated)
inactive: HL-60 > 100 µM | EKVX > 100 µM | HOP-92 > 100 µM | K562 > 100 µM | 786-0 > 100 µM | IGROV-1 > 100 µM | HCC 2998 > 100 µM | OVCAR-5 > 100 µM | HOP-62 > 100 µM | UO-31 > 100 µM | U-251 > 100 µM | MCF7 > 100 µM | SR > 100 µM | UACC-257 > 100 µM | COLO 205 > 100 µM

Cc1ccc(OCC2OC(n3cnc4c(N(C)C)nc(Br)nc43)CC2Oc2ccc(C)cc2)cc1 (configuration not stated)
inactive: HL-60 > 100 µM | EKVX > 100 µM | HOP-92 > 100 µM | K562 > 100 µM | MDA-MB-435 > 100 µM | 786-0 > 100 µM | IGROV-1 > 100 µM | HCC 2998 > 100 µM | OVCAR-5 > 100 µM | UO-31 > 100 µM | U-251 > 100 µM | MCF7 > 100 µM | SF-539 > 100 µM | CCRF-CEM > 100 µM | CAKI-1 > 100 µM | UACC-257 > 100 µM | COLO 205 > 100 µM

CC(C)(C)/N=C/N1C=Cc2nc3ccccc3cc2C1
inactive: HL-60 75.7 µM | EKVX > 100 µM | HOP-92 > 100 µM | K562 > 100 µM | 786-0 > 100 µM | IGROV-1 > 100 µM | HCC 2998 > 100 µM | OVCAR-5 > 100 µM | RXF 393 > 100 µM | HOP-62 > 100 µM | UO-31 > 100 µM | U-251 > 100 µM | SF-539 > 100 µM | CCRF-CEM > 100 µM | CAKI-1 > 100 µM | SR > 100 µM | UACC-257 > 100 µM | COLO 205 36.9 µM

O=C1C(Cl)=C(Cl)C(=O)N1C1C2CC3CC(C2)CC1C3 (configuration not stated)
inactive: HL-60 24.5 µM | EKVX > 100 µM | HOP-92 > 100 µM | K562 28 µM | 786-0 > 100 µM | IGROV-1 > 100 µM | HCC 2998 > 100 µM | OVCAR-5 > 100 µM | RXF 393 94.6 µM | HOP-62 > 100 µM | UO-31 > 100 µM | U-251 > 100 µM | SF-539 > 100 µM | CCRF-CEM 19.3 µM | CAKI-1 38.3 µM | SR 31 µM | UACC-257 > 100 µM | COLO 205 32.8 µM

COC(=O)c1cc(/C=C/C(=O)Cc2ccccc2)cn1S(=O)(=O)c1ccccc1
inactive: HL-60 > 100 µM | EKVX > 100 µM | K562 > 100 µM | 786-0 > 100 µM | IGROV-1 > 100 µM | HCC 2998 > 100 µM | OVCAR-5 > 100 µM | RXF 393 > 100 µM | HOP-62 > 100 µM | UO-31 > 100 µM | MCF7 > 100 µM | SF-539 > 100 µM | CCRF-CEM > 100 µM | CAKI-1 > 100 µM | SR > 100 µM | UACC-257 > 100 µM | COLO 205 > 100 µM

CC1=NOC(=O)/C1=C/c1ccc([N+](=O)[O-])cc1
inactive: HL-60 > 100 µM | EKVX > 100 µM | HOP-92 > 100 µM | K562 > 100 µM | 786-0 > 100 µM | IGROV-1 > 100 µM | HCC 2998 > 100 µM | OVCAR-5 > 100 µM | RXF 393 > 100 µM | HOP-62 > 100 µM | UO-31 > 100 µM | U-251 > 100 µM | SF-539 > 100 µM | CCRF-CEM > 100 µM | CAKI-1 > 100 µM | SR > 100 µM | UACC-257 > 100 µM | COLO 205 > 100 µM

COC(=O)/C(C=O)=C/Sc1ccccc1
inactive: HL-60 45.5 µM | EKVX 29 µM | HOP-92 52.6 µM | K562 50.7 µM | 786-0 15.2 µM | IGROV-1 13.9 µM | HCC 2998 37.8 µM | OVCAR-5 37.6 µM | RXF 393 15.3 µM | HOP-62 45.4 µM | UO-31 10.5 µM | U-251 17.1 µM | SF-539 18 µM | CCRF-CEM 57.5 µM | CAKI-1 24.2 µM | SR 40.1 µM | UACC-257 29.8 µM | COLO 205 20 µM

CC1=C(O)C(=O)c2cn(C)cc2C1=O
inactive: HL-60 > 100 µM | EKVX > 100 µM | HOP-92 > 100 µM | K562 > 100 µM | 786-0 > 100 µM | IGROV-1 > 100 µM | HCC 2998 > 100 µM | OVCAR-5 > 100 µM | RXF 393 > 100 µM | HOP-62 > 100 µM | UO-31 > 100 µM | U-251 > 100 µM | SF-539 > 100 µM | CCRF-CEM > 100 µM | CAKI-1 > 100 µM | SR > 100 µM | UACC-257 > 100 µM | COLO 205 > 100 µM

CC/C(SC)=[N+](\C)[O-]
inactive: HL-60 17.9 µM | EKVX > 100 µM | HOP-92 > 100 µM | K562 44.2 µM | 786-0 > 100 µM | IGROV-1 > 100 µM | HCC 2998 > 100 µM | OVCAR-5 > 100 µM | RXF 393 > 100 µM | HOP-62 > 100 µM | UO-31 > 100 µM | U-251 > 100 µM | SF-539 > 100 µM | CCRF-CEM 15.5 µM | CAKI-1 > 100 µM | SR 25.8 µM | UACC-257 > 100 µM | COLO 205 > 44.8 µM

CC1=CC2CC(C)C1(C)CCc1ccoc12 (configuration not stated)
inactive: HL-60 > 100 µM | EKVX > 100 µM | HOP-92 > 100 µM | K562 > 100 µM | 786-0 > 100 µM | IGROV-1 > 100 µM | HCC 2998 > 100 µM | OVCAR-5 > 100 µM | RXF 393 > 100 µM | HOP-62 > 100 µM | UO-31 > 100 µM | U-251 > 100 µM | SF-539 > 100 µM | CCRF-CEM > 100 µM | CAKI-1 > 100 µM | SR > 100 µM | UACC-257 > 100 µM | COLO 205 > 100 µM
